Eleven molecules from ChEMBL document CHEMBL1153084, “Synthesis and HMG-CoA reductase inhibition of 2-cyclopropyl-4-thiophenyl-quinoline mevalonolactones” (Bioorg Med Chem, 2009) can be followed below.

For the assay, the target named is T1, 3-hydroxy-3-methylglutaryl-coenzyme A reductase (Homo sapiens, UniProt P04035).
T1 sequence (P04035 whole entry): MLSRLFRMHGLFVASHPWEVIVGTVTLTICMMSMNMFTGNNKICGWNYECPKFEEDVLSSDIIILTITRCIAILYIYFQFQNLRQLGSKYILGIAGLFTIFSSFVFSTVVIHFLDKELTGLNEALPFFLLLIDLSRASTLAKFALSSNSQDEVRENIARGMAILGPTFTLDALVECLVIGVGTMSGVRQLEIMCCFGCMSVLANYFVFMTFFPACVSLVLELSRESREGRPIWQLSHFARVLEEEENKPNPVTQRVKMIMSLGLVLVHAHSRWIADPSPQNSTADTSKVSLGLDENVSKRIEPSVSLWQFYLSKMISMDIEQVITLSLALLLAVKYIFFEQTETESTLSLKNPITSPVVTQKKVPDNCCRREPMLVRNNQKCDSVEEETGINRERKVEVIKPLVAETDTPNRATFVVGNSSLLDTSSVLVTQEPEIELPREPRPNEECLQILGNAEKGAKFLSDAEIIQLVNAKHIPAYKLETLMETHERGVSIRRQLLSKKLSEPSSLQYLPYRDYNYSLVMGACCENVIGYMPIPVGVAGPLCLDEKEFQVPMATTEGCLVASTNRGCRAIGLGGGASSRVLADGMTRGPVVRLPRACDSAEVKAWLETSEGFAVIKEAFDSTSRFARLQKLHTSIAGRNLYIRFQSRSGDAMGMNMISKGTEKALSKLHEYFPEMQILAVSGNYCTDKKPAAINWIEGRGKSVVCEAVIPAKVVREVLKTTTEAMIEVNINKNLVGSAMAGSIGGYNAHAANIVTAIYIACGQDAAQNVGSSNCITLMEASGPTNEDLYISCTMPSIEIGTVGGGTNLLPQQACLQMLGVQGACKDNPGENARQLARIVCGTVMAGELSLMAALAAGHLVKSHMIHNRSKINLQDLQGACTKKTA
The experiment in a line: Inhibition of HMG CoA reductase by spectrophotometry.
One may read the IC50 as the midpoint of a concentration-inhibition curve. `O=C1C[C@H](O)C[C@@H](/C=C/c2c(C3CC3)nc3cc(Sc4ccc(F)cc4)c(F)cc3c2Sc2ccc(F)cc2)O1` gave an IC50 of 45.7 µM.
Molecule `COc1ccc2nc(C3CC3)c(/C=C/[C@@H]3C[C@@H](O)CC(=O)O3)c(Sc3ccc(C(C)C)cc3)c2c1` showed an IC50 of 41.3 µM.
Turning to `COc1cccc(Sc2c(/C=C/[C@@H]3C[C@@H](O)CC(=O)O3)c(C3CC3)nc3ccc(F)cc23)c1`, the half-inhibitory concentration (IC50) was found to be 5.61 µM.
In turn, `COc1cccc(Sc2c(/C=C/[C@@H]3C[C@@H](O)CC(=O)O3)c(C3CC3)nc3cc(F)c(F)cc23)c1` returned an IC50 of 360 µM.
Regarding `CC(C)c1ccc(Sc2c(/C=C/[C@@H]3C[C@@H](O)CC(=O)O3)c(C3CC3)nc3cc(F)c(F)cc23)cc1`, it took 759 µM to reach half-maximal inhibition (IC50). This IC50 lies about 2.1-fold higher than the previous one.
Molecule `O=C1C[C@H](O)C[C@@H](/C=C/c2c(C3CC3)nc3ccccc3c2Sc2ccc(F)cc2)O1` came in with an IC50 of 62.4 µM.
In the case of `CC(C)c1ccc(Sc2c(/C=C/[C@@H]3C[C@@H](O)CC(=O)O3)c(C3CC3)nc3ccccc23)cc1`, inhibition was half-maximal at 11.3 µM (IC50).
As for `COc1ccc2nc(C3CC3)c(/C=C/[C@@H]3C[C@@H](O)CC(=O)O3)c(Sc3ccc(F)cc3)c2c1`, the half-inhibitory concentration (IC50) came out at 25.7 µM.
For the molecule `O=C1C[C@H](O)C[C@@H](/C=C/c2c(C3CC3)nc3ccc(F)cc3c2Sc2ccc(F)cc2)O1`, the midpoint of inhibition, the IC50, lay at 6.93 µM.
Turning to `COc1cccc(Sc2cc3nc(C4CC4)c(/C=C/[C@@H]4C[C@@H](O)CC(=O)O4)c(Sc4cccc(OC)c4)c3cc2F)c1`, the midpoint of inhibition, the IC50, lay at 7.1 µM.
`O=C(O)C[C@H](O)C[C@H](O)/C=C/c1c(C2CC2)nc2ccccc2c1-c1ccc(F)cc1` [PITAVASTATIN CALCIUM] came in with an IC50 of 8.9 µM.
